Source: patent US20030232102A1, “Total glycosides of paeony, method to prepare the same and uses thereof” (priority 2001, published 2003)

System: patients with rheumatoid arthritis
Assay: Phase II clinical study in rheumatoid arthritis: effectiveness (symptoms, physical examination, comprehensive evaluation)
Format: in vivo, human
Parameters: ESR Reduced to norm., % of cases / CRP Reduced to Norm., % of cases / RF Reduced to norm., % of cases: concentration or dose not given beside the values
Details: for AGS 50% increased, % of cases / AGS 50% increased, cases / CRP 50% reduced, % of cases / CRP 50% reduced, cases / CRP Reduced to Norm., % of cases / CRP Reduced to Norm., cases / ESR 50% reduced, % of cases / ESR 50% reduced, cases / ESR Reduced to norm., % of cases / ESR Reduced to norm., cases / ITJ 50% reduced, % of cases / ITJ 50% reduced, cases / ITJ Disappeared, % of cases / ITJ Disappeared, cases / MR 50% reduced, % of cases / MR 50% reduced, cases / MR Disappeared, % of cases / MR Disappeared, cases / NSJ 50% reduced, % of cases / NSJ 50% reduced, cases / NSJ Disappeared, % of cases / NSJ Disappeared, cases / RF 2 dilutions lower, % of cases / RF 2 dilutions lower, cases / RF Reduced to norm., cases: double blinded
Protocol: It was a multiple-centered, randomized, parallel, positive controlled Phrase II clinical study.
All clinical studies except the above mentioned 120 cases were conducted in a single-blind condition.
1) Age 18˜65, male or female who agreed to the investigational treatment for 12 weeks to 6 months. History of rheumatoid arthritis was within 3 years.
2) Documented Rheumatoid Arthritis based on a diagnostic criteria of 1987 Revised ARA Criteria for the Classification of Rheumatoid Arthritis
3) Diagnosis of a typical active stage of RA: A patient is said to be on an active stage of RA if he or she has satisfied at least 4 of the following 5 items.
2) Patient who quitted the treatment for the ineffectiveness 7 days after the start of administration was included in the efficacy analysis. Patient who quitted the treatment for the side effects was not included in the efficacy analysis but the safety analyses.
1) The placebo run-in period: Seven days before administration, the selected patients stopped using NSAIDs and took a placebo instead.
4) For the double-blinded study, patients in both groups would be given capsules and tablets in same shapes, odors and amount. Placebo of capsule or tablet were included. Neither doctors nor patients can tell the group of treatment from the other.
5) No analgesics, anti-inflammation drugs, immune regulatory agents or muscle relaxants were allowed during the period of study. Acetaminophen could be used when necessary. If a physical therapy was started before enrollment, it was allowed to be continued, yet, it should be taken all the way during the period of clinical study.
1) Pain at rest: patients were asked to scale the degree of pain with a ruler [drawing 1]
2) Morning stiffness: Patients were requested to make notes on duration of their morning joint stiffness, a time span from its appearance to recovery in minutes every morning. The doctors should evaluate their record sheets by questioning them. For example “Do you fell stiff in any of your joints? (today, these 2 days)” When get a “yes” in answer, then “when did you get up today?” and “when does the stiffness be gone?”
3) Swelling of joints: Take count of the index of joint swelling by summing up the degree number of each joint.
0=normal; 1=swelling soft tissues (synovium) without hydrarthrus; 2=swelling soft tissues (synovium) with hydrarthrus.
4) Tenderness of joints: Take count of the index of joint tenderness by summing up the degree number of each joint:
5) Grip strength: Fold the arm belt of a sphygmomanometer twice and seal it in a small cloth bag suitable for a hand to hold. Aerates the belt in pressure of 20 mm Hg. Patients were asked to grip the bag with their not braced left and right hand, the grip strength is the average pressures in mm Hg for three times.
6) Time consumed for a 15 meters' walk (Seconds): Time started from a calm standing to the final of 15 meters. The average of three times.
7) General joint function (criteria of ARA):
8) Self-scoring and physician's grading on disease conditions: Both patients and doctors were required to submit their score sheet every time on follow-up survey. The scoring was made upon following criteria:
9) Patient's general condition: condition on the physical strength, sleep and appetite.
No effect: less than 30% improvement in symptoms and physical signs.
Improved: About 50% improvement in symptoms and physical signs (including general conditions in physical strength, sleep and appetite).

[1] = double blind, n = 60 per group, 12 weeks

SMILES: CN(Cc1cnc2nc(N)nc(N)c2n1)c1ccc(C(=O)N[C@@H](CCC(=O)O)C(=O)O)cc1 [MTX, Methotrexate]
- No effect, number of patients [1]: 15
- Obviously improved, % of patients [1]: (48.33%)
- Obviously improved, number of patients [1]: 29
- AGS 50% increased, % of cases (4 weeks): 5.0%
- AGS 50% increased, cases (4 weeks): 3
- CRP 50% reduced, % of cases (4 weeks): 16.7%
- CRP 50% reduced, cases (4 weeks): 10
- CRP Reduced to Norm., % of cases (4 weeks): 6.7%
- CRP Reduced to Norm., cases (4 weeks): 4
- ESR 50% reduced, % of cases (4 weeks): 30.0%
- ESR 50% reduced, cases (4 weeks): 18
- ESR Reduced to norm., % of cases (4 weeks): 26.7%
- ESR Reduced to norm., cases (4 weeks): 16
- ITJ 50% reduced, % of cases (4 weeks): 31.7%
- ITJ 50% reduced, cases (4 weeks): 19
- ITJ Disappeared, % of cases (4 weeks): 3.3%
- ITJ Disappeared, cases (4 weeks): 2
- MR 50% reduced, % of cases (4 weeks): 38.3%
- MR 50% reduced, cases (4 weeks): 23
- MR Disappeared, % of cases (4 weeks): 25.0%
- MR Disappeared, cases (4 weeks): 15
- NSJ 50% reduced, % of cases (4 weeks): 40.0%
- NSJ 50% reduced, cases (4 weeks): 24
- NSJ Disappeared, % of cases (4 weeks): 15.0%
- NSJ Disappeared, cases (4 weeks): 9
- RF 2 dilutions lower, % of cases (4 weeks): 13.3%
- RF 2 dilutions lower, cases (4 weeks): 8
- RF Reduced to norm., cases (4 weeks): 0
- AGS 50% increased, % of cases (8 weeks): 10.0%
- AGS 50% increased, cases (8 weeks): 6
- CRP 50% reduced, % of cases (8 weeks): 26.7%
- CRP 50% reduced, cases (8 weeks): 16
- CRP Reduced to Norm., % of cases (8 weeks): 25.0%
- CRP Reduced to Norm., cases (8 weeks): 15
- ESR 50% reduced, % of cases (8 weeks): 41.7%
- ESR 50% reduced, cases (8 weeks): 25
- ESR Reduced to norm., % of cases (8 weeks): 31.7%
- ESR Reduced to norm., cases (8 weeks): 19
- ITJ 50% reduced, % of cases (8 weeks): 43.3%
- ITJ 50% reduced, cases (8 weeks): 26
- ITJ Disappeared, % of cases (8 weeks): 3.3%
- ITJ Disappeared, cases (8 weeks): 2
- MR 50% reduced, % of cases (8 weeks): 53.3%
- MR 50% reduced, cases (8 weeks): 32
- MR Disappeared, % of cases (8 weeks): 21.7%
- MR Disappeared, cases (8 weeks): 13
- NSJ 50% reduced, % of cases (8 weeks): 55.0%
- NSJ 50% reduced, cases (8 weeks): 33
- NSJ Disappeared, % of cases (8 weeks): 20.0%
- NSJ Disappeared, cases (8 weeks): 12
- RF 2 dilutions lower, % of cases (8 weeks): 36.7%
- RF 2 dilutions lower, cases (8 weeks): 22
- RF Reduced to norm., cases (8 weeks): 0
- AGS 50% increased, % of cases (12 weeks): 15.0%
- AGS 50% increased, cases (12 weeks): 9
- CRP 50% reduced, % of cases (12 weeks): 33.3%
- CRP 50% reduced, cases (12 weeks): 20
- CRP Reduced to Norm., % of cases (12 weeks): 8.3%
- CRP Reduced to Norm., cases (12 weeks): 5
- ESR 50% reduced, % of cases (12 weeks): 51.7%
- ESR 50% reduced, cases (12 weeks): 31
- ESR Reduced to norm., % of cases (12 weeks): 33.3%
- ESR Reduced to norm., cases (12 weeks): 20
- ITJ 50% reduced, % of cases (12 weeks): 51.7%
- ITJ 50% reduced, cases (12 weeks): 31
- ITJ Disappeared, % of cases (12 weeks): 15.0%
- ITJ Disappeared, cases (12 weeks): 9
- MR 50% reduced, % of cases (12 weeks): 60.0%
- MR 50% reduced, cases (12 weeks): 36
- MR Disappeared, % of cases (12 weeks): 25.0%
